In patent US20210230131A1, “POLYAMINO BIARYL COMPOUNDS AND THEIR USE” (INSERM (INSTITUT NATIONAL DE LA SANTÉ ET DE LA RECHERCHE …, priority 2018, published 2021):

Assays:
ThyTau22 mice = assay: Y-Maze short-term memory test in Thy-Tau22 mice; format: in vivo; details: ThyTau22 mice treated one month, 1 mg/kg in drinking water; compared with compound 30
Method: Thy-Tau22 transgenic colonies (C57Bl/6J genetic background) were obtained by crossing heterozygous males C57Bl/6J with WT females. All animals were housed in a pathogen-free facility at 5 to 6 animals per cage (Techniplast Cages 1284L), with ad libitum access to food and water in a 12/12-hour light-dark cycle and maintained under a constant temperature of 22° C. For treatment, animals were randomly distributed and compound 30 or 31 was provided in the drinking water at a final concentration of 1 mg/kg, ie 12.5 μg/mL for drinking solutions taking into account an average weight of 25 g/mouse drinking 4 mL/day. […] Food consumption and bodyweight were also assessed. […]
Before any behavioral test, exploratory behavior and locomotion were evaluated in treated and untreated animals in an Openfield (OF) 25 cm×25 cm arena. […] Anxiety, which could interfere with the memory test, was evaluated using the elevated plus maze (EPM). […] Locomotion, distance, speed and velocity were measured, as well as the number of entries into each arm, time spent in open versus closed arms, percentage of open arm entries and time spent in the open arms during a 5 minutes test.
Y-Maze: Short-term memory was tested on a Y-maze. […] Parameters—total distance travelled, velocity, alternation between the arms, entries into the new, starting or other arm—were measured over 5 minutes. […]

wild-type mice = assay: Y-Maze short-term memory test in wild-type mice; format: in vivo; details: treated wild-type mice, 1 mg/kg in drinking water
Method: Thy-Tau22 transgenic colonies (C57Bl/6J genetic background) were obtained by crossing heterozygous males C57Bl/6J with WT females. All animals were housed in a pathogen-free facility at 5 to 6 animals per cage (Techniplast Cages 1284L), with ad libitum access to food and water in a 12/12-hour light-dark cycle and maintained under a constant temperature of 22° C. For treatment, animals were randomly distributed and compound 30 or 31 was provided in the drinking water at a final concentration of 1 mg/kg, ie […] for drinking solutions taking into account an average weight of 25 g/mouse drinking 4 mL/day. […] Food consumption and bodyweight were also assessed. In WT animals, a pilot study of drug treatment was performed for one month to establish the innocuousness of compound 30 and 31 treatments. Thy-Tau22 females were treated for 1 months, starting at 6 months of age.
Y-Maze: Short-term memory was tested on a Y-maze. The Y-maze consists of three enclosed arms surrounded by spatial clues. One arm was closed off during the learning phase. Each mouse was positioned in the Starting arm. Mice were allowed to explore the maze for 5 min. During 2 min of retention time, the closed arm was opened and the mouse was re-placed in the starting arm. […] Parameters—total distance travelled, velocity, alternation between the arms, entries into the new, starting or other arm—were measured over 5 minutes. […]

With `CN(C)Cc1ccccc1-c1ccc(NCCCN2CCCCC2)c(OCCC2CCCCC2)c1` [Compound 31, 3-(2-cyclohexylethoxy)-2′-((dimethylamino)methyl)-N-(3-(piperidin-1-yl)propyl)-[1,1′-biphenyl]-4-amine] the “short memory preservation at the Y-Maze task” value (ThyTau22 mice) was “higher short memory preservation” and the Y-Maze behavioral task (wild-type mice) was “succeed in the Y-Maze behavioral task”.
